Experimental data taken from patent US9718835B2 (China Medical University Hospital, priority 2013, dated 2017).
Where two headings read alike, the source gives them in different places.

Assays:
SKOV3 (Ovary cancer) = assay: cells; type: cell-based, human
HCT 116 (Colon cancer) = assay: cells; type: cell-based, human
[1] = test system: MDA-MB-468 (Breast cancer); assay: cells; type: cell-based, human
A549 (Lung cancer) = assay: cells; type: cell-based, human
[2] = test system: KB (epidermoid carcinoma of the nasopharynx); assay: Sulforhodamine B cytotoxicity assay, KB; type: cell-based, human; details: Table 1; 72 h; average ± SD; read-out: IC50 KB
Description: (§1) The 12 novel 1-derivatives 9a-l were evaluated for in vitro antiproliferative activity against four human tumor cell lines, KB (nasopharyngeal), A-549 (lung), DU-145 (prostate), and KBvin (MDR KB subline), by using a sulforhodamine B colorimetric assay with triplicate experiments.^30 Compounds 1 and 3 were used as controls.
(§2) The human tumor cell lines used in this manuscript were A-549 (lung carcinoma), MDA-MB-231 (triple-negative breast cancer), DU-145 (hormone-insensitive prostate cancer), KB (originally isolated from epidermoid carcinoma of the nasopharynx), KBvin (vincristine-resistant KB subline), and HCT116 (colorectal adenocarcinoma). These cell lines were obtained from the Lineberger Comprehensive Cancer Center (UNC-CH) or from ATCC (Manassas, Va.), except KBvin, which was a generous gift of Professor Y.-C. Cheng (Yale University). All cell lines were maintained and assayed in RPMI-1640 medium containing 2 mM L-glutamine and 25 mM HEPES (HyClone), supplemented with 10% heat-inactivated fetal bovine serum (HyClone), 100 μg/mL streptomycin, 100 IU/mL penicillin, and 0.25 μg/mL amphotericin B (Cellgro) in a humidified atmosphere containing 5% CO2 in air. Compound stock solutions were prepared at 10 mM in DMSO and diluted with culture medium with the final DMSO concentration ≦0.01% (v/v), a concentration without effect on cell growth. The 4-6×10^3 cells/well were cultured for 72 h with various concentrations of test compounds in 96-well plate at 37° C. […] Each assay was performed in triplicate with duplicated samples.

[3] = test system: KBvin (vincristine-resistant KB subline); assay: Sulforhodamine B cytotoxicity assay, KBvin; type: cell-based, human; details: Table 1; 72 h; average ± SD; read-out: IC50 KBvin
Text: as §2, with “Compound stock solutions were prepared at 10 mM in DMSO and diluted with culture medium with the final DMSO concentration ≦0.01% (v/v), a concentration without effect on cell growth.” left out

[4] = test system: DU-145 (hormone-insensitive prostate cancer); assay: Sulforhodamine B cytotoxicity assay, DU-145; type: cell-based, human; details: Table 1; 72 h; average ± SD
Description: as §1, §2

A-549 (lung carcinoma) = assay: Sulforhodamine B cytotoxicity assay, A-549; type: cell-based, human; details: Table 1; 72 h; average ± SD
Text: as §2, with “Compound stock solutions were prepared at 10 mM in DMSO and diluted with culture medium with the final DMSO concentration ≦0.01% (v/v), a concentration without effect on cell growth.” left out

[5] = molecular target: T1, recombinant human Topoisomerase I (Homo sapiens, UniProt P11387); assay: Topoisomerase I activity assay in a cell-free system; type: biochemical; details: purified recombinant human Topo I
T1 construct: purchased TopoGEN
T1 sequence (P11387 1-765): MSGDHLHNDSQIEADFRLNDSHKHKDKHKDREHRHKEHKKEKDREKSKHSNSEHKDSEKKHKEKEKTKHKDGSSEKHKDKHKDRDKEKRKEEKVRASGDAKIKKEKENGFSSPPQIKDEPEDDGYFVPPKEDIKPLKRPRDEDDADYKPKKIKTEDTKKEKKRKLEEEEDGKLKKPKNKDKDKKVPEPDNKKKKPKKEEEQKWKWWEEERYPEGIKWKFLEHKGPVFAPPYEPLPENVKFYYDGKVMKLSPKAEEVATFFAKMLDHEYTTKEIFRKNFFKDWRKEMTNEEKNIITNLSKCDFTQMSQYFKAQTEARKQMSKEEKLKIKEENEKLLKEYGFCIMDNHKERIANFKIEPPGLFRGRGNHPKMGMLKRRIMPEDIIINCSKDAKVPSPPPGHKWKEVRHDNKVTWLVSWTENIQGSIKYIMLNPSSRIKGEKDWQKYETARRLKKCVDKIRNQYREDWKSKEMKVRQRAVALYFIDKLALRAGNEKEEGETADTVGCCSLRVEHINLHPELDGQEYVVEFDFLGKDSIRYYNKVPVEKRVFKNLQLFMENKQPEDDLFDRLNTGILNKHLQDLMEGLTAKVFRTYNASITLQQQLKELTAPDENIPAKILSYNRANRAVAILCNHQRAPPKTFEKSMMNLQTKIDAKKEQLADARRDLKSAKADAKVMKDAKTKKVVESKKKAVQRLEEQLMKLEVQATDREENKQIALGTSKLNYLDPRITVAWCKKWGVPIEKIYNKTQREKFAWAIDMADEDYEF
Description: Inhibition of Topo I activity by 9a in a cell-free system. A 1-delivative with an esterified 20-hydroxy group is expected to be activated by digestion with carboxylesterases. […] We authenticated the inhibitory effect of 9a against Topo I in a dose-dependent manner Thus, we confirmed that 9a is a new class of Topo I inhibitor.
One unit of recombinant human Topoisomerase I enzyme (TopoGEN) was pre-incubated for 20 min at 37° C. with vehicle, 9a, 1, 3, or SN-38 in a final volume of 20 μL reaction buffer (10 mM Tris-HCl, pH 7.9, 1 mM EDTA, 150 mM NaCl, 0.1% BSA, 0.1 mM spermidine, 5% glycerol) was then incubated with 250 ng of supercoiled plasmid DNA for 20 min. The supercoiled, relaxed, or nicked DNA was separated by 1% agarose gel in 1×TAE (Tris-Acetate-EDTA) buffer. Ethidium bromide stained agarose gel was photographed using Gel Doc XR (Bio-Rad).

[6] = Homo sapiens, SK-OV-3, Table 6, read-out: In vitro cytotoxicity SKOV3 (Ovary cancer)
[7] = Homo sapiens, HCT-116, Table 6, read-out: In vitro cytotoxicity HCT 116 (Colon cancer)
[8] = Homo sapiens, MDA-MB-468, Table 6, read-out: In vitro cytotoxicity MDA-MB-468 (Breast cancer)
[9] = Homo sapiens, A549, Table 6, read-out: In vitro cytotoxicity A549 (Lung cancer)

| Compound | IC50 [2] | IC50 [3] | IC50 [4] | IC50 (A-549 (lung carcinoma)) | also measured |
| --- | --- | --- | --- | --- | --- |
| CC[C@@]1(OC(=O)CNC(Cc2ccc(OC)cc2)=NS(=O)(=O)c2ccc(C)cc2)C(=O)OCc2c1cc1n(c2=O)Cc2cc3c(CN4CCN(C)CC4)c(O)ccc3nc2-1 [#9] | – | – | – | – | IC50 (SKOV3 (Ovary cancer); [6]): 1700 ± 279 nM; IC50 (HCT 116 (Colon cancer); [7]): 458 ± 46.3 nM; IC50 [1, 8]: 871 ± 44.9 nM; IC50 (A549 (Lung cancer); [9]): 13200 ± 1090 nM |
| CC[C@@]1(OC(=O)CNC(Cc2ccc(OC)cc2)=NS(=O)(=O)c2ccc(C)cc2)C(=O)OCc2c1cc1n(c2=O)C(C)c2cc3ccccc3nc2-1 (stereo partly drawn) [#10] | – | – | – | – | IC50 (SKOV3 (Ovary cancer); [6]): 132 ± 24.2 nM; IC50 (HCT 116 (Colon cancer); [7]): 2090 ± 96.1 nM; IC50 [1, 8]: 1650 ± 90.8 nM; IC50 (A549 (Lung cancer); [9]): 2810 ± 416 nM |
| CC[C@@]1(OC(=O)CNC(Cc2ccc(F)cc2)=NS(=O)(=O)c2ccc(C)cc2)C(=O)OCc2c1cc1n(c2=O)Cc2cc3ccccc3nc2-1 [#11] | – | – | – | – | IC50 (SKOV3 (Ovary cancer); [6]): 31.1 ± 6.05 nM; IC50 (HCT 116 (Colon cancer); [7]): 71.9 ± 2.59 nM; IC50 [1, 8]: 49.7 ± 6.53 nM; IC50 (A549 (Lung cancer); [9]): 123 ± 9.1 nM |
| CC[C@@]1(OC(=O)CNC(Cc2ccccc2)=NS(=O)(=O)c2ccc(C)cc2)C(=O)OCc2c1cc1n(c2=O)Cc2cc3ccccc3nc2-1 [Compound 9b] | 180 ± 0.8 nM | 100 ± 7.3 nM | 130 ± 11 nM | 57 ± 3.9 nM | – |
| CC[C@@]1(OC(=O)C(C)NC(Cc2ccc(OC)cc2)=NS(=O)(=O)c2ccc(C)cc2)C(=O)OCc2c1cc1n(c2=O)Cc2cc3ccccc3nc2-1 (stereo partly drawn) [Compound 9c] | 910 ± 60 nM | 87 ± 8.7 nM | 140 ± 5.9 nM | 89 ± 8.3 nM | – |
| CC[C@@]1(OC(=O)C(C)NC(Cc2ccccc2)=NS(=O)(=O)c2ccc(C)cc2)C(=O)OCc2c1cc1n(c2=O)Cc2cc3ccccc3nc2-1 (stereo partly drawn) [Compound 9d] | 220 ± 17 nM | 96 ± 9.4 nM | 150 ± 22 nM | 71 ± 6.9 nM | – |
| CC[C@@]1(OC(=O)C(NC(Cc2ccc(OC)cc2)=NS(=O)(=O)c2ccc(C)cc2)C(C)C)C(=O)OCc2c1cc1n(c2=O)Cc2cc3ccccc3nc2-1 (stereo partly drawn) [Compound 9e] | 11000 ± 480 nM | 1500 ± 110 nM | 1700 ± 140 nM | 1000 ± 110 nM | – |
| CC[C@@]1(OC(=O)C(NC(Cc2ccccc2)=NS(=O)(=O)c2ccc(C)cc2)C(C)C)C(=O)OCc2c1cc1n(c2=O)Cc2cc3ccccc3nc2-1 (stereo partly drawn) [Compound 9f] | 11000 ± 280 nM | 2200 ± 56 nM | 2000 ± 250 nM | 1300 ± 120 nM | – |
| CC[C@@]1(OC(=O)C(CC(C)C)NC(Cc2ccc(OC)cc2)=NS(=O)(=O)c2ccc(C)cc2)C(=O)OCc2c1cc1n(c2=O)Cc2cc3ccccc3nc2-1 (stereo partly drawn) [Compound 9g] | 2700 ± 8.3 nM | 1000 ± 130 nM | 1600 ± 96 nM | 950 ± 18 nM | – |
| CC[C@@]1(OC(=O)C(CC(C)C)NC(Cc2ccccc2)=NS(=O)(=O)c2ccc(C)cc2)C(=O)OCc2c1cc1n(c2=O)Cc2cc3ccccc3nc2-1 (stereo partly drawn) [Compound 9h] | 4400 ± 420 nM | 1800 ± 30 nM | 1100 ± 16 nM | 890 ± 39 nM | – |
| CCC(C)C(NC(Cc1ccc(OC)cc1)=NS(=O)(=O)c1ccc(C)cc1)C(=O)O[C@]1(CC)C(=O)OCc2c1cc1n(c2=O)Cc2cc3ccccc3nc2-1 (stereo partly drawn) [Compound 9i] | 9600 ± 42 nM | 1700 ± 160 nM | 8300 ± 140 nM | 1200 ± 66 nM | – |
| CCC(C)C(NC(Cc1ccccc1)=NS(=O)(=O)c1ccc(C)cc1)C(=O)O[C@]1(CC)C(=O)OCc2c1cc1n(c2=O)Cc2cc3ccccc3nc2-1 (stereo partly drawn) [Compound 9j] | 11000 ± 1000 nM | 8200 ± 610 nM | 11000 ± 750 nM | 6500 ± 430 nM | – |
| CC[C@@]1(OC(=O)C(Cc2ccccc2)NC(Cc2ccc(OC)cc2)=NS(=O)(=O)c2ccc(C)cc2)C(=O)OCc2c1cc1n(c2=O)Cc2cc3ccccc3nc2-1 (stereo partly drawn) [Compound 9k] | 850 ± 24 nM | 120 ± 1.9 nM | 220 ± 25 nM | 120 ± 10 nM | – |
| CC[C@@]1(OC(=O)C(Cc2ccccc2)NC(CCO)=NS(=O)(=O)c2ccc(C)cc2)C(=O)OCc2c1cc1n(c2=O)Cc2cc3ccccc3nc2-1 (stereo partly drawn) [Compound 9l] | 310 ± 21 nM | 140 ± 8.1 nM | 200 ± 13 nM | 83 ± 10 nM | – |
| CCc1c2c(nc3ccc(O)cc13)-c1cc3c(c(=O)n1C2)COC(=O)[C@@]3(CC)OC(=O)CNC(Cc1ccc(OC)cc1)=NS(=O)(=O)c1ccc(C)cc1 [Compound Wcpt-37] | – | – | – | – | IC50 (SKOV3 (Ovary cancer); [6]): 11.6 ± 4.08 nM; IC50 (HCT 116 (Colon cancer); [7]): 55.8 ± 2.05 nM; IC50 [1, 8]: 7.54 ± 4.07 nM; IC50 (A549 (Lung cancer); [9]): 121 ± 15.8 nM |
| CCc1c2c(nc3ccc(OC(=O)N4CCC(N5CCCCC5)CC4)cc13)-c1cc3c(c(=O)n1C2)COC(=O)[C@@]3(CC)OC(=O)CNC(Cc1ccc(OC)cc1)=NS(=O)(=O)c1ccc(C)cc1 [Compound Wcpt-39] | – | – | – | – | IC50 (SKOV3 (Ovary cancer); Homo sapiens, SK-OV-3, read-out: In vitro cytotoxicity SKOV3 (Ovary cancer)): 4380 ± 674 nM; IC50 (HCT 116 (Colon cancer); Homo sapiens, HCT-116, read-out: In vitro cytotoxicity HCT 116 (Colon cancer)): 12500 ± 445 nM; IC50 ([1]; Homo sapiens, MDA-MB-468, read-out: In vitro cytotoxicity MDA-MB-468 (Breast cancer)): 6640 ± 497 nM; IC50 (A549 (Lung cancer); Homo sapiens, A549, read-out: In vitro cytotoxicity A549 (Lung cancer)): 30700 ± 2120 nM |
| CCc1c2c(nc3ccc(O)cc13)-c1cc3c(c(=O)n1C2)COC(=O)[C@]3(O)CC [SN-38] | – | – | – | – | Inhibition of Topo I activity (relaxation/nicking of supercoiled plasmid DNA) [5]: inhibited Topo I activity |
| CCc1c2c(nc3ccccc13)-c1cc3c(c(=O)n1C2)COC(=O)[C@@]3(CC)OC(=O)CNC(Cc1ccc(OC)cc1)=NS(=O)(=O)c1ccc(C)cc1 [Wcpt-03] | – | – | – | – | IC50 (SKOV3 (Ovary cancer); Table 6, read-out: In vitro cytotoxicity SKOV3 (Ovary cancer)): 8.08 ± 1.67 nM; IC50 (HCT 116 (Colon cancer); Table 6, read-out: In vitro cytotoxicity HCT 116 (Colon cancer)): 208 ± 4.79 nM; IC50 ([1]; Table 6, read-out: In vitro cytotoxicity MDA-MB-468 (Breast cancer)): 17.7 ± 3.2 nM; IC50 (A549 (Lung cancer); Table 6, read-out: In vitro cytotoxicity A549 (Lung cancer)): 48.3 ± 1.72 nM |
